Read-outs that look alike come from different tables or passages of the source.
Legend:
[1] = test system: SaR4: Meticillin-Resistant Staphylococcus aureus; experiment: Antibiogram by the disk diffusion technique; assay type: cell-based; details: Table F2; strain SaR4; diameters
Description: (§1) 5.6 SaR4: Meticillin-Resistant Staphylococcus aureus Having an Associated Resistance to the Aminoglycosides, Fluoroquinolones, Macrolides-Lincosamines-Synergistins and Ofloxacin The bacterial and antibiogram identification is carried out by the VITEK 2 system (bioMérieux) and by the disk diffusion technique
(§2) 5.7 PaR2: Pseudomonas aeruginosa Having an Associated Resistance to the β-Lactams, the Trimethoprim-Sulphamethoxazole Combination and Fosfomycin The bacterial and antibiogram identification is carried out by the VITEK 2 system (bioMérieux) and by the disk diffusion technique

[2] = test system: SaR4: Meticillin-Resistant Staphylococcus aureus; experiment: Antibiogram, MIC by the VITEK 2 system; assay type: cell-based
Description: as §1, §2

[3] = test system: Staphylococcus aureus strain ATCC 29213 (wild type); experiment: Chessboard technique: MICs alone and synergism of Cx1 combinations; assay type: cell-based; details: Staphylococcus aureus, ATCC29213, read-out: Initials MIC (antibiotic)
From the text: (§3) Three reference strains were used, corresponding to those studied for the MICs and MBCs (Minimum Bactericidal Concentration): Escherichia coli ATCC 25922, Staphylococcus aureus ATCC 29213, Pseudomonas aeruginosa ATCC 27853. For each of these strains 3 corresponding clinical isolates were chosen, having various antibiotic-resistance profiles, routinely used in standard fashion: • EcR1, EcR2, EcR3; • SaR1, SaR3, SaR4; • PaR2, PaR3, PaR5.
(§4) 1.3. Procedure: Chessboard Technique
(§5) The bacterial suspension is transferred to a 15 mL Falcon tube, centrifuged for 10 min at 4500 g, then the pellet is re-suspended in 1 mL of sterile distilled water. Suitable dilutions are then prepared in order to obtain a bacterial inoculum between 5·10^5 and 5·10^6 CFU/mL.
(§6) The MICs of the antibiotics were previously determined for each strain, by the method of microdilution in a liquid medium (CLSI (Clinical and Laboratory Standards Institute), 2003).
(§7) The same procedure is followed for the Cx1. […] Thus 64 ATB/Cx1 combinations are obtained.
(§8) The final volume contained in each of the wells must be 100 μL. Two controls must be present on each plate: • column 1 and 12: medium control • column 2 and 11: medium+bacteria control
(§9) Cx1: […] in the wells of […], starting with the lowest concentration.
(§10) ATB: 25 μL in the wells of rows H to A (columns 3 to 11), starting with the lowest concentration.
(§11) 50 μL in each of the wells of columns 2 to 11.
(§12) D2: Reading the Turbidity at 540 Nm.
(§13) The FIC (Fractional Inhibitory Concentration Index) value is determined by the following formula:
(§14) [formula] MICA in combination MICA alone MICB in combination MICB alone
(§15) When FIC≦0.5, there is a synergistic effect between antibiotic A and antibiotic B.
(§16) When 0.5<FIC≦1, there is an additive effect between antibiotic A and antibiotic B.
(§17) When 1<FIC≦4, there is an indifferent effect between antibiotic A and antibiotic B.
(§18) When FIC>4, there is an antagonistic effect between antibiotic A and antibiotic B.
(§19) For each strain and each antibiotic/Cx1 combination, the experiments were repeated a minimum of 3 times.

[4] = as above; assay type: cell-based, Staphylococcus aureus; details: Staphylococcus aureus, MRSA, read-out: MIC (antibiotic)
From the text: as §3, §4, §5, §6, §7, §8, §9, §10, §11, §12, §13, §14, §15, §16, §17, §18, §19

[5] = test system: MRSA strain without associated resistance (SaR1); experiment: as above; assay type: cell-based, Staphylococcus aureus; details: Staphylococcus aureus, MRSA, read-out: MIC (antibiotic)
From the text: as §3, §4, §5, §6, §7, §8, §9, §10, §11, §12, §13, §14, §15, §16, §17, §18, §19

[6] = test system: MRSA strain having a resistance to the aminoglycosides and fluoroquinolones (SaR3); experiment: as above; assay type: cell-based, Staphylococcus aureus; details: Staphylococcus aureus, MRSA, read-out: MIC (antibiotic)
From the text: as §3, §4, §5, §6, §7, §8, §9, §10, §11, §12, §13, §14, §15, §16, §17, §18, §19

[7] = test system: PaR5: Pseudomonas aeruginosa; experiment: Antibiogram by the disk diffusion technique; assay type: cell-based; set-up: unit not given here; details: Table I1; strain PaR5
[8] = test system: Pseudomonas aeruginosa strain having a resistance to β-lactams, the trimethoprim-sulphamethoxazole combination and fosfomycin (PaR2); assay type: cell-based; details: antibiotic used alone; second figure of the cell; n = 4
From the text: as §3, §4, §5, §6, §7, §8, §9, §10, §11, §12, §13, §14, §15, §16, §17, §18, §19

[9] = test system: EcR3: ESBL-Producing Escherichia coli; experiment: Antibiogram by the disk diffusion technique; assay type: cell-based; details: Table C1; strain EcR3
Description: 5.3 EcR3: ESBL-Producing Escherichia coli with Associated Resistance to the Aminoglycosides, Rifampicin and the Trimethoprim-Sulphamethoxazole Combination
The bacterial and antibiogram identification is carried out by the VITEK 2 system (bioMérieux) and by the disk diffusion technique

[10] = test system: mucoid strain of Pseudomonas aeruginosa having a resistance to rifampicin and the trimethoprim-sulphamethoxazole combination (PaR5); experiment: Chessboard technique: MICs alone and synergism of Cx1 combinations; assay type: cell-based; details: antibiotic used alone; second figure of the cell; n = 4
From the text: as §3, §4, §5, §6, §7, §8, §9, §10, §11, §12, §13, §14, §15, §16, §17, §18, §19

[11] = test system: Pseudomonas aeruginosa strain ATCC 27853 (wild type); experiment: as above; assay type: cell-based; details: antibiotic used alone; second figure of the cell; n = 4
From the text: as §3, §4, §5, §6, §7, §8, §9, §10, §11, §12, §13, §14, §15, §16, §17, §18, §19

[12] = test system: Pseudomonas aeruginosa strain having a resistance to β-lactams (including the carbapenems), aminoglycosides, the trimethoprim-sulphamethoxazole combination and …; experiment: as above; assay type: cell-based; details: antibiotic used alone; second figure of the cell; n = 4
From the text: as §3, §4, §5, §6, §7, §8, §9, §10, §11, §12, §13, §14, §15, §16, §17, §18, §19

[13] = test system: PaR2: Pseudomonas aeruginosa; assay type: cell-based; details: Table G1; strain PaR2
Description: as §2

[14] = test system: EcR1: Penicillinase-Producing Escherichia coli without Associated Resistance; experiment: Antibiogram by the disk diffusion technique; assay type: cell-based
Description: 5. Identification and Antibiogram 5.1 EcR1: Penicillinase-Producing Escherichia coli without Associated Resistance
The bacterial and antibiogram identification is carried out by the VITEK 2 system (bioMérieux) and by the disk diffusion technique.

NC[C@H]1O[C@H](O[C@H]2[C@H](O)[C@@H](O[C@H]3O[C@H](CO)[C@@H](O)[C@H](N)[C@H]3O)[C@H](N)C[C@@H]2N)[C@H](O)[C@@H](O)[C@@H]1O [Kanamycin]
diameter in mm [1]: 7 mm

CN[C@H](CC(C)C)C(=O)N[C@H]1C(=O)N[C@@H](CC(N)=O)C(=O)N[C@H]2C(=O)N[C@H]3C(=O)N[C@H](C(=O)N[C@H](C(=O)O)c4cc(O)cc(O)c4-c4cc3ccc4O)[C@H](O)c3ccc(c(Cl)c3)Oc3cc2cc(c3O[C@@H]2O[C@H](CO)[C@@H](O)[C@H](O)[C@H]2O[C@H]2C[C@](C)(N)[C@H](O)[C@H](C)O2)Oc2ccc(cc2Cl)[C@H]1O [Vancomycin]
MIC ([2]; Staphylococcus aureus, read-out: MIC mg/L): 1 mg/L | MIC ([2]; Table F2, strain SaR4, cells of the mixed column that are MICs): 1 mg/L | MIC [3]: 0.5 µg/mL | MIC [4]: 0.25 µg/mL | MIC [5]: 0.25 µg/mL | MIC [6]: 0.25 µg/mL

Colimycin
Diameter [7]: 23 | MIC (antibiotic) [8]: 8 µg/mL | Diameter [9]: 16 | MIC (antibiotic) [10]: 16 µg/mL | MIC (antibiotic) [11]: 4 µg/mL | MIC (antibiotic) [12]: 8 µg/mL | Diameter [13]: 20 | Results (diameter) ([14]; Table A1, category from diameter vs Dmin Dmax): Susceptible | Diameter ([14]; Table A1, disk diffusion): 15 | diameter in mm ([14]; Table A2, diameter): 15 mm
